In one data set the test system is RC256. Description: Recombinant human cytomegalovirus antiviral assay (RC256, beta-galactosidase). The format is cell-based, HCMV. To be noted: Human betaherpesvirus 5, read-out: Antiviral Activity EC50. An excerpt:
(§1) These complimentary assays tested the ability of a compound to inhibit the production of new virus and the toxicity of the compound to the host cells. It was important that both assays be performed simultaneously in order to compare the results directly since, toxicity may indirectly reduce viral yield.
(§2) In this assay, HCMV replication was monitored by the production of E. coli beta-galactosidase by the engineered virus RC256 [Spaete and Mocarski, Proc.Nat.Acad.Sci., 84, 7213 (1987)]. One antiviral assay and one cytotoxicity assay were done for each compound. Dilutions of test compounds and infection of cells in a 96-well plate was essentially as described above for the HCMV ELISA except for the following. Human foreskin fibroblasts at 3.5 x 10^5 cells per milliliter were infected in solution with RC256 at 0.05 pfu per cell. Compounds and cells were incubated 3 days and processed at […]. For the beta galactosidase detection, the supernatant was aspirated from the antiviral assay plates and 50 µl Reporter Lysis Buffer (Promega, diluted to 1X with water) was added per well. The plates were incubated at room temperature at least 30 minutes and plates were frozen at -20 °C at this point for later processing. 50 µl of 2X assay buffer [120 mM Na2HPO4, 80 mM NaH2PO4, 2 mM MgCl2, 100 mM 2-mercaptoethanol, 4.4 mM ONPG (Sigma)] was added per well and incubated at room temperature 30 to 45 minutes. The reaction was stopped with 100 µl 1M CAPS buffer, pH = 11.0, per well and the optical density was read at 410 nanometers. Ganciclovir was used as a positive control and the EC50 was determined as described above for the HCMV ELISA. Results (EC50/TD50) are included in Table 1.

The target in data set [1] is T1, Human leukocyte elastase (HLE) (Homo sapiens, UniProt P08246).
T1 construct: gift of R. Senior, Washington University
T1 sequence (P08246 30-267): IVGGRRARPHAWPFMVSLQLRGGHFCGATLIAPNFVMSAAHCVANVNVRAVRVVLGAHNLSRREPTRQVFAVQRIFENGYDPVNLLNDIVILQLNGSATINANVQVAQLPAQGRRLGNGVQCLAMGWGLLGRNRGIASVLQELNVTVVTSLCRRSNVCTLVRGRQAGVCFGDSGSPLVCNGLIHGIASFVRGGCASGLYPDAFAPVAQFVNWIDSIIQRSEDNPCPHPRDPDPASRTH
Description: Human leukocyte elastase assay. Type of data set: biochemical. To be noted: read-out: HLE % @ Conc.
Description: Human leukocyte elastase (HLE) (gift of R. Senior, Washington University) was dissolved in saline at 1 mg/ml and further diluted 1/20 in assay buffer (0.2 M Tris, pH 8.0) before use. 10 µl of test compound in DMSO (or DMSO alone), 100 µl of assay buffer and 50 µl of enzyme were added to 96 well plates, mixed and pre-incubated for 30 minutes at ambient temperature. Reaction was initiated by addition of 40 µl of 2.5 mM methoxysuccinyl-Ala-Ala-Pro-Val-p-nitroanilide (Sigma; 25 mM in DMSO diluted 1/10 in assay buffer before use). The increase in absorbance at 405 nm was monitored for 10 minutes with a Biotek EL340 plate reader.

Data set [2] can be described thus: in vitro. Type of data set: cell-based. As to conditions: human, foreskin fibroblasts.
Source text: as §1
(§3) Viral yield was estimated by measuring the amount of a viral antigen produced 4 days post infection with a monoclonal antibody to an abundant "immediate early" viral protein. An enzyme-linked (horseradish peroxidase) secondary antibody specific to the primary (mouse) antibody was used to measure the amount of viral antigen. Test compounds were diluted to 2-times the desired final concentration in DMEM + 5% FBS. One hundred microliters of this solution was placed in each well of a 96-well plate. This was performed once for the antiviral 96-well plate and again for a cytotoxicity plate. Two controls were also included for both plates; a no drug control and a no virus control. Ganciclovir was routinely tested in antiviral and cytotoxicity plates as a reference standard because it has known antiviral activity for HCMV. All cells were prepared by harvesting human foreskin fibroblasts, with trypsin and re-suspending at a concentration of 5 X 10^5 cells per ml in DMEM. Infected cells were prepared by infecting these with HCMV (strain AD169) at a multiplicity of infection = 0.2. One hundred microliters of uninfected cells (5 x 10^4 cells) were added to the appropriate wells of the cytotoxicity plate. In a similar manner 100 µl of infected cells (5 x 10^4 cells) were added to the appropriate wells of the antiviral plate. Additionally, uninfected cells not treated with test compound were included as controls on the antiviral plate. Plates were incubated for 96 hours at 37°C in 5% CO2 atmosphere and processed to measure the amount of viral antigen and toxicity.
as §2

For data set [3], the target named is T2, Bovine pancreas α-chymotrypsin (Bos taurus, UniProt P00766, DEL14-15/DEL147-148).
T2 construct: Bovine pancreas α-chymotrypsin (type II, Sigma); purchased Sigma type II; host or cells: bovine pancreas
In words: Chymotrypsin assay. The format is biochemical. As to conditions: read-out: Chymotrypsin % @ Conc. The method, then: The chymotrypsin assay was modified from the method of Delmar et al [Anal. Biochem., 99, 316-320 (1979)]. Bovine pancreas α-chymotrypsin (type II, Sigma) was dissolved in 0.001 N HCl at 1 mg/ml and further diluted 1/600 in assay buffer (0.1 M Tris, pH 7.8, containing 0.1 M CaCl2) before use. 20 µl of test compound in DMSO (or DMSO alone), 100 µl of assay buffer and 30 µl of enzyme were added to 96 well plates, mixed and pre-incubated for 30 minutes at ambient temperature. Reaction was initiated by addition of 50 µl of 0.2 mM N-succinyl-Ala-Ala-Pro-Phe-p-nitroanilide (Sigma; 2 mM in DMSO diluted 1/10 in assay buffer before use). The increase in absorbance at 405 nm was monitored for 10 minutes with a Biotek EL340 plate reader.

Data set [4] concerns the target HCMV protease (Assemblin) (Human cytomegalovirus, UniProt P16753). Description: Enzymatic assay for HCMV protease (Assemblin) inhibitors, chromogenic pNA substrate. The format is biochemical. The method, then:
Assemblin protease activity was determined using a chromogenic para-nitroanilide (pNA) substrate based on the hCMV maturation cleavage site, succinyl-AGVVNA-paranitroanilide. […] Potential protease inhibitors were dissolved in DMSO and 10 µL were added to the wells of a 96-well plate (Dynatech, Immulon 1). Enzyme was diluted to 4.8 µg/mL in assay buffer (10 mM sodium phosphate, pH 7.4, 150 mM sodium acetate, 0.1% CHAPS, 20% glycerol) and 100 µL were added to each well. Following a 30 minute incubation at room temperature, 50 µL substrate (1 part 20 mM succinyl-AGVVNA-paranitroanilide (SEQID:1) in DMSO plus 9 parts assay buffer) were added, and periodic readings taken in a microplate reader at 405 nm relative to 650 nm. Activities were expressed as milliabsorbance unit (mAU) change per minute. Inhibitor potency was determined by comparison with incubations lacking inhibitor, which under these conditions gave an increase of 0.5-1 mAU/min. No increase was seen when enzyme was omitted. Results [IC50 (µM)] are included in Table 1.
The construction also encoded six additional histidine residues at the amino terminus of the protease. These additional histidine residues provided an affinity ligand by which it was purified using nickel-nitriloacetic acid-agarose (Qiagen).
The purified protease was stored as a 1-3 mg/ml stock solution in 20 mM HEPES buffer, pH 7.4; containing 20% (v/v) glycerol. This stock was diluted with assay buffer to 4.8 µg/ml. A 100 µL aliquot of this solution was used in the enzyme reaction.
A specific substrate was synthesized based on the cleavage specificity of HCMV protease at the "maturation site" of the assembly protein (F. Liu and B. Roizman, J. Virol., 65, 5149 (1991), and A. Welch, et al, J. Virol., 65, 4091 (1991)). The assembly protein maturation site has the sequence ...AGVVNA*SCRLATA...; the substrate used was succinyl-[…] (SEQID:1) which was prepared by standard peptide synthetic methods such as that described in Bodansky and Bodansky, "The Practice of Peptide Synthesis" (1984), and was stored as a stock solution at 20 mM in dimethyl sulfoxide. This was diluted 10-fold with assay buffer to give a concentration of 2 mM just before use. An aliquot of 50 µL was used in the reaction
An assay Buffer (10 mM sodium phosphate buffer, pH 7.4; 150 mM sodium acetate; 0.1% CHAPS; and 20% (v/v) glycerol) was used to dilute stock solutions of enzyme and substrate.

The next data set relates to HCMV (strain AD169). In words: Antiviral assay, ELISA for HCMV antigens. The format is cell-based. As to conditions: Human betaherpesvirus 5, AD169, 96 hours.
Source text: as §1
Viral yield was estimated by measuring the amount of a viral antigen produced 4 days post infection with a monoclonal antibody to an abundant "immediate early" viral protein. An enzyme-linked (horseradish peroxidase) secondary antibody specific to the primary (mouse) antibody was used to measure the amount of viral antigen. Test compounds were diluted to 2-times the desired final concentration in DMEM + 5% FBS. One hundred microliters of this solution was placed in each well of a 96-well plate. This was performed once for the antiviral 96-well plate and again for a cytotoxicity plate. Two controls were also included for both plates; a no drug control and a no virus control. […]
The following was performed on the antiviral plate only. […] The reaction was stopped by adding 100 µL of phosphoric acid and the OD at 450 nm recorded. […] Antiviral activity was calculated by comparing the amount of viral antigen produced in drug treated wells with that produced in wells absent of drug. […]

Data set [5] in a line: in vitro. Type of data set: cell-based. As to conditions: human, foreskin fibroblasts.
Source text: as §1
as §3, with “One hundred microliters of uninfected cells (5 x 10^4 cells) were added to the appropriate wells of the cytotoxicity plate. In a similar manner 100 µl of infected cells (5 x 10^4 cells) were added to the appropriate wells of the antiviral plate. Additionally, uninfected cells not treated with test compound were included as controls on the antiviral plate. Plates were incubated for 96 hours at 37°C in 5% CO2 atmosphere and processed to measure the amount of viral antigen and toxicity.” left out
This is another data set of the same source.

Where [6] appears, read: read-out: Assemblin Protease % @ Conc.

Consider 13 molecules from EP0888322B1, “ELECTROPHILIC KETONES FOR THE TREATMENT OF HERPESVIRUS INFECTIONS” (G.D. SEARLE & CO., priority 1996, dated 1997).

Sequence of HCMV protease (Assemblin) (P16753 1-256): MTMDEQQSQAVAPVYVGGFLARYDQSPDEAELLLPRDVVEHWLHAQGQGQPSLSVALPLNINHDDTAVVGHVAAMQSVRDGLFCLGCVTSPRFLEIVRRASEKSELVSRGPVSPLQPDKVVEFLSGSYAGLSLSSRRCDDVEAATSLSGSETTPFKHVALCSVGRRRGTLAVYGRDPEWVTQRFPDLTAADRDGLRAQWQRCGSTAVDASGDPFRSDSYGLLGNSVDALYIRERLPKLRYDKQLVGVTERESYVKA

In the case of `O=C(Nc1ccccc1C(=O)C(F)(F)F)c1ccco1` [Example 1, N-[2-(2,2,2-trifluoro-1-oxoethyl)phenyl]furan-2-carboxamide], the EC50 (usually the concentration at which the effect is half-maximal) in the data set with RC256 was 45 µM. In addition, the inhibition at 300 µM in data set [1] (@ 300 µM) amounted to 25%. The half-maximal cytotoxic concentration (CC50) (as a rule, the concentration that lowers cell viability or growth by half) in “in vitro [2]” was over 100 µM.

Regarding `O=C(CCc1ccccc1)Nc1cc(F)ccc1C(=O)C(F)(F)F` [Example 2, N-[5-fluoro-2-(2,2,2-trifluoro-1-oxoethyl)phenyl]benzenepropanamide], in the data set on RC256, the 50% effective concentration (EC50) is 57 µM. For the same molecule, the inhibition at 100 µM in data set [3] came to 48%; in data set [1] (@ 100 µM) it was 26%. The same molecule gave a CC50 in “in vitro [2]” of over 100 µM.

As for `O=C(CCc1ccccc1)Nc1ccccc1C(=O)C(F)(F)F` [Example 4, N-[2-(2,2,2-trifluoro-1-oxoethyl)phenyl]benzenepropanamide], the inhibition at 100 µM in data set [3] was 11%.

As for `O=C(Nc1ccccc1C(=O)C(F)(F)F)c1cnccn1` [Example 5, N-[2-(2,2,2-trifluoro-1-oxoethyl)phenyl]pyrazine-2-carboxamide], the EC50 with RC256 came to 55 µM. In addition, the inhibition at 300 µM in data set [3] turned out to be 0%. Besides, the CC50 in the data set “in vitro [2]” is over 100 µM.

As for `O=C(Nc1ccccc1C(=O)C(F)(F)F)OCc1ccccc1` [Example 6, phenylmethyl N-[2-(2,2,2-trifluoro-1-oxoethyl)phenyl]carbamate], the inhibition at 100 µM in data set [3] turned out to be 21%.

As for `O=C(CCc1ccccc1)Nc1cc([N+](=O)[O-])ccc1C(=O)C(F)(F)F` [Example 7, N-[5-nitro-2-[2,2,2-trifluoro-1-oxoethyl)phenyl]benzenepropanamide], the inhibition at 33 µM in data set [4] (setting [6]) came out at 84%. In the data set on HCMV (strain AD169), this molecule returned an EC50 of 16 µM. Moreover, the CC50 at 96 h in “in vitro [5]” is over 100 µM. The inhibition at 100 µM in data set [3] is 27%.

Take `O=C(Nc1ccc(F)cc1C(=O)C(F)(F)F)c1ccco1` [Example 8, N-[4-fluoro-2-(2,2,2-trifluoro-1-oxoethyl)phenyl] furan-2-carboxamide]: in data set [4] (setting [6]), the inhibition at 33 µM turned out to be 18%.

Turning to `O=C(Nc1ccccc1C(=O)C(F)(F)F)c1cc2ccccc2s1` [Example 9, N-[2-(2,2,2-trifluoro-1-oxoethyl)phenyl]-1-benzothiophene-2-carboxamide], the EC50 in the data set with RC256 is 30 µM. Further, the inhibition at 100 µM in data set [3] worked out at 48%. In the data set “in vitro [2]”, this molecule had a CC50 of over 100 µM.

Regarding `O=C(Nc1ccccc1C(=O)C(F)(F)F)C(F)(F)F` [Example 10, α,α,α-trifluoro-N-[2-(2,2,2-trifluoro-1-oxoethyl)phenyl]acetamide], the inhibition at 10 µM in data set [4] (@ 10 µM, read-out: Assemblin Protease % @ Conc.) was 39%. Further, the EC50 in the data set with HCMV (strain AD169) is over 100 µM. In the data set “in vitro [5]”, the cytotoxic concentration (CC50) at 96 h was over 100 µM. Also, the inhibition at 100 µM in data set [3] was 49%.

Regarding `O=C(Nc1ccccc1C(=O)C(F)(F)F)c1ccccn1` [Example 11, N-[2-(2,2,2-trifluoro-1-oxoethyl)phenyl]pyridine-2-carboxamide], the inhibition at 33 µM in data set [4] (setting [6]) is 40%.

Regarding `COc1ccccc1C(=O)Nc1ccccc1C(=O)C(F)(F)F` [Example 12, N-[2-(2,2,2-trifluoro-1-oxoethyl)phenyl]2-methoxybenzamide], the inhibition at 33 µM in data set [4] (setting [6]) was determined as 14%.

Turning to `COc1ccccc1C(=O)Nc1ccccc1C(=O)C(F)(F)C(=O)NC(C)C` [Example 17, N-[2-(3-(2-propylamino)-3-oxo-2,2-difluoro-1-oxopropyl)phenyl]2-methoxyphenylcarboxamide], the inhibition at 300 µM in data set [3] turned out to be 0%.

“N-[2,2,2-trifluoro-1-oxoethyl)phenyl]indolyl-2-carboxamide [Example 15]”: in data set [4] (@ 100 µM), the percent inhibition is 30% @ 100.
